Counter-ions that a name gives are not always drawn.
| Compound | melting point |
| --- | --- |
| Cl.O=C(Cc1n[nH]c(S)n1)Nc1ccc(CCNC[C@H](O)c2ccccc2)cc1 | 210 to 213 °C |
| Cl.O=C(Cc1ccccn1)Nc1ccc(CCNCC(O)c2ccccc2F)cc1 (stereo not drawn) | 194 to 196 °C |
| Cl.O=C(Cc1ccccn1)Nc1ccc(CCNCC(O)c2cccc(F)c2)cc1 (stereo not drawn) | 214 to 215 °C |
| Cl.O=C(Cc1ccccn1)Nc1ccc(CCNCC(O)c2ccc(F)cc2)cc1 (stereo not drawn) | 223 to 225 °C |
| Cl.O=C(Cc1ccc2ccccc2n1)Nc1ccc(CCNC[C@H](O)c2ccccc2)cc1 | 234 to 235 °C |
| Cl.O=C(Cc1ccccn1)Nc1ccc(CCNC[C@H](O)c2cccc(Cl)c2)cc1 | 221 to 222 °C |
| Cl.Cl.Nc1nc(C(=O)C(=O)Nc2ccc(CCNC[C@H](O)c3ccccc3)cc2)cs1 | 205 to 210 °C (dec.) |
| Cl.O=C(Cc1ccccn1)Nc1ccc(OCCNC[C@H](O)c2ccccc2)cc1 | 225 to 226 °C |
| Cl.Cl.O=C(Nc1ccc(CCNC[C@H](O)c2ccccc2)cc1)Nc1ccccn1 | 132 to 133 °C |
| Cl.Cl.Nc1nc(CC(=O)Nc2ccc(CCNC[C@H](O)c3ccccc3)cc2)ns1 | 244 to 246 °C |
| CCOC(=O)Nc1nc(CC(=O)Nc2ccc(CCNC[C@H](O)c3ccccc3)cc2)ns1.Cl | 205 to 208 °C |
| Cl.O=C(Cc1cccc(Cl)n1)Nc1ccc(CCNC[C@H](O)c2ccccc2)cc1 | 248 to 251 °C |
| Cl.Cl.O=C(Cc1cn(Cc2ccccc2)cn1)Nc1ccc(CCNC[C@H](O)c2ccccc2)cc1 | 139 to 141 °C |
| Cl.Cl.O=C(Cc1cn(Cc2ccccc2Cl)cn1)Nc1ccc(CCNC[C@H](O)c2ccccc2)cc1 | 140 to 143 °C |
| Cl.Cl.O=C(Nc1ccc(CCNC[C@H](O)c2ccccc2)cc1)c1cccnc1 | 263 to 265 °C |
| Cl.Cl.O=C(Cc1cn(Cc2cccc(Cl)c2)cn1)Nc1ccc(CCNC[C@H](O)c2ccccc2)cc1 | 140 to 143 °C |
| Cl.Cl.O=C(Cc1nccn1Cc1ccc(F)cc1)Nc1ccc(CCNC[C@H](O)c2ccccc2)cc1 | 230 to 235 °C |
| Cl.Cl.O=C(Cc1nccn1Cc1ccc(Br)cc1)Nc1ccc(CCNC[C@H](O)c2ccccc2)cc1 | 221 to 223 °C |
| Cl.Cl.O=C(Cc1nccn1Cc1ccc(I)cc1)Nc1ccc(CCNC[C@H](O)c2ccccc2)cc1 | 222 to 225 °C |

| Compound | melting point |
| --- | --- |
| Cl.Cl.O=C(Cc1nccn1Cc1ccc(C(F)(F)F)cc1)Nc1ccc(CCNC[C@H](O)c2ccccc2)cc1 | 197 to 203 °C |
| Cl.Cl.O=C(Cc1nccn1-c1ccc2ccccc2c1)Nc1ccc(CCNC[C@H](O)c2ccccc2)cc1 | 208 to 214 °C |
| Cc1cnc(CC(=O)Nc2ccc(CCNC[C@H](O)c3ccccc3)cc2)n1Cc1ccc(F)cc1.Cl.Cl | 219 to 223 °C |
| Cc1cn(Cc2ccc(F)cc2)c(CC(=O)Nc2ccc(CCNC[C@H](O)c3ccccc3)cc2)n1.Cl.Cl | 204 to 207 °C |
| Cl.O=C(Cc1nnnn1Cc1ccc(F)cc1)Nc1ccc(CCNC[C@H](O)c2ccccc2)cc1 | 225 to 228 °C |
| Cl.O=C(CC1=NNN(Cc2ccc(Cl)c(Cl)c2)N1)Nc1ccc(CCNC[C@H](O)c2ccccc2)cc1 | 232 to 235 °C |
| Cl.O=C(CC1=NNN(Cc2ccc(F)cc2)N1)Nc1ccc(CCNC[C@H](O)c2ccccc2)cc1 | 233 to 235 °C |
| Cl.Cl.O=C(Cc1nc[nH]n1)Nc1ccc(CCNC[C@H](O)c2ccccc2)cc1 | 221 to 224 °C |
| Cl.Cl.O=C(Cc1n[nH]c(SCc2ccccc2)n1)Nc1ccc(CCNC[C@H](O)c2ccccc2)cc1 | 222 to 224 °C |
| CC(=O)Nc1nc(CC(=O)Nc2ccc(CCNC[C@H](O)c3ccccc3)cc2)cs1.Cl | 242 to 245 °C |
| CS(=O)(=O)Nc1nc(CC(=O)Nc2ccc(CCNC[C@H](O)c3ccccc3)cc2)cs1.Cl | 252 to 256 °C |
| Cl.Cl.N=C(N)Nc1nc(CC(=O)Nc2ccc(CCNC[C@H](O)c3ccccc3)cc2)cs1 | > 230 °C (dec.) |
| Cl.O=C(Cc1nccn1Cc1ccc([N+](=O)[O-])cc1)Nc1ccc(CCNC[C@H](O)c2ccccc2)cc1 | 237 to 243 °C |
| Cl.Cl.O=C(Cc1nc2ccccc2s1)Nc1ccc(CCNC[C@H](O)c2ccccc2)cc1 | 228 to 233 °C (dec.) |
| Cl.Cl.O=C(Cc1csc2nccn12)Nc1ccc(CCNC[C@H](O)c2ccccc2)cc1 | 161 to 162 °C |
| Cl.Cl.O=C(Cc1nccn1Cc1c(F)ccc(F)c1F)Nc1ccc(CCNC[C@H](O)c2ccccc2)cc1 | 213 to 217 °C |
| Cl.Cl.O=C(Cc1nccn1Cc1cc(F)c(F)c(F)c1)Nc1ccc(CCNC[C@H](O)c2ccccc2)cc1 | 209 to 213 °C |
| Cl.Cl.O=C(Cc1nccn1Cc1c(F)c(F)c(F)c(F)c1F)Nc1ccc(CCNC[C@H](O)c2ccccc2)cc1 | 190 to 193 °C |
| Cl.Cl.O=C(Cc1nccn1Cc1cccc(I)c1)Nc1ccc(CCNC[C@H](O)c2ccccc2)cc1 | 233 to 234 °C |

| Compound | melting point |
| --- | --- |
| Cl.Cl.Cl.O=C(Cc1nccn1-c1ccc2ccccc2n1)Nc1ccc(CCNC[C@H](O)c2ccccc2)cc1 | 162 to 165 °C |
| Cl.Cl.O=C(Cc1ncc[nH]1)Nc1ccc(CCNC[C@H](O)c2ccccc2)cc1 | 203 to 207 °C |
| Cl.O=C(Cn1cccn1)Nc1ccc(CCNC[C@H](O)c2ccccc2)cc1 | 229 to 232 °C |
| Cl.Cl.O=C(Cn1cncn1)Nc1ccc(CCNC[C@H](O)c2ccccc2)cc1 | 237 to 240 °C |
| Cl.O=C(Cc1cccnc1)Nc1ccc(CCNC[C@H](O)c2ccccc2)cc1 | 236 to 238 °C |
| Cl.O=C(Cc1ccncc1)Nc1ccc(CCNC[C@H](O)c2ccccc2)cc1 | 195 to 198 °C |
| Cl.O=C(CCc1ccccn1)Nc1ccc(CCNC[C@H](O)c2ccccc2)cc1 | 202 to 204 °C |
| Cl.O=C(Cc1nnn[nH]1)Nc1ccc(CCNC[C@H](O)c2ccccc2)cc1 | 259 to 261 °C |
| Cc1cccnc1CC(=O)Nc1ccc(CCNC[C@H](O)c2ccccc2)cc1.Cl | 216 to 217 °C |
| O=C(Nc1ccc(CCNCC(O)c2ccccc2)cc1)c1ccccn1 (stereo not drawn) (as salt: hydrochloride) | 223 to 225 °C |
| O=C(Cc1nnnn1Cc1ccc(Cl)c(Cl)c1)Nc1ccc(CCNCC(O)c2ccccc2)cc1 (stereo not drawn) (as salt: hydrochloride) | 240 to 242 °C |
| Nc1cccc(CC(=O)Nc2ccc(CCNCC(O)c3ccccc3)cc2)n1 (stereo not drawn) (as salt: hydrochloride) | 150 to 152 °C |
| O=C(Cc1ccccn1)Nc1ccc(CCNCC(O)c2ccccc2)cc1 (stereo not drawn) (as salt: hydrochloride) | 223 to 224 °C |
| O=C(Cc1cnccn1)Nc1ccc(CCNCC(O)c2ccccc2)cc1 (stereo not drawn) (as salt: hydrochloride) | 236 to 238 °C |
| O=C(Cc1nccn1Cc1ccc(Cl)cc1)Nc1ccc(CCNC[C@H](O)c2ccccc2)cc1 (as salt: hydrochloride) [Example 23, (R)-2-[1-(4-Chlorobenzyl)-1H-imidazol-2-yl]-4′-[2-[(2-hydroxy-2-phenylethyl)amino]ethyl]acetanilide dihydrochloride] | 203 to 209 °C |
| O=C(Cc1ncccn1)Nc1ccc(CCNC[C@H](O)c2ccccc2)cc1 (as salt: hydrochloride) [Example 104, (R)-4′-[2-[(2-hydroxy-2-phenylethyl)amino]ethyl]-2-(2-pyrimidinyl]acetanilide hydrochloride] | 208 to 210 °C |
| Cl.O=C(Cc1cccc(OCc2ccccc2)n1)Nc1ccc(CCNC[C@H](O)c2ccccc2)cc1 [16] | 237 to 238 °C |
| Cl.O=C(Cc1cccc(OCc2ccccc2)n1)Nc1ccc(CCNC[C@H](O)c2ccccc2)cc1 [60] | 214 to 216 °C |
| O=C(Cc1nc2ccccc2[nH]1)Nc1ccc(CCNC[C@H](O)c2ccccc2)cc1 [Example 91, (R)-2-(1H-benzimidazol-2-yl)-4′-[2-[(2-hydroxy-2-phenylethyl)amino]-ethyl]acetanilide] | 158 to 165 °C |
